Experimental data as given in patent US6602487B1, “Methods and tests for producing and for inhibiting coronary artery vasospasms” (Dimera Incorporated, priority 1997, dated 2003).
Values joined by “and” are separate entries in the source; they are usually repeats but may differ in a detail not shown here. Equal values may be shown once.

Tests used:
[1] = vaginal administration; cited from earlier work
[2] = Progesterone serum levels after topical ProGest cream in menopausal or postmenopausal women; assay type: in vivo, human; details: topical ProGest cream 2 ml, per patient
Method: An open label, controlled study was carried out in six healthy menopausal or postmenopausal women using no over-the-counter or prescription medications, medical foods or dietary supplements which would influence progesterone levels. Menopausal or postmenopausal status was determined by clinical methods. The inclusion criteria were low estrogen levels (less than or equal to 25 picograms per ml); non-use of progesterone for two weeks prior to the beginning of the study, and four weeks if medroxyprogesterone acetate was used; a body mass index less than 30; age between 40 and 65; non-smoker; at least six months after menopause (last bleeding); normal mammogram and pap smear within the past year; and reasonable reliability and client compliance. […] The cream was to be applied in 2 ml amounts on calendar days 2-15 at 8 a.m. Applications were increased to a second 2 ml application at 8 p.m. on calendar days 16-30. In addition, estrogen was applied as a […] patch. The patch used was Vivelle®, Ciba (now Novartis), Summit, N.J. The Vivelle® patch (0.05 mg/day) was applied on calendar days 0, 3, 7, 10, 14, 17, 21, 24 and 28.
Estrogen and progesterone serum levels were determined by chemiluminescence and were conducted on calendar days 2, 9, 16, 23, and 30 at times indicated.

[3] = tested on: coronary artery vascular muscle cells (VMC); assay: Subcellular Ca2+ and PKC localization and contraction of coronary VMC stimulated with serotonin plus U46619; assay type: cell-based, rhesus monkeys; details: VMC from treated monkeys, 10 μM serotonin plus 100 nM U46619
Source text: Single VMCs from the left anterior descending, circumflex, and right coronary arteries of adult rhesus monkeys were isolated and studied both as freshly dispersed and as primary cultures. The short-term primary cultured cells (never passaged) maintain the characteristics of the source tissue for 2 3 weeks, including contraction, relaxation, receptors, and membrane electrical properties. VMCs were dissociated with collagenase and protease enzymes in a potassium glutamate solution (KG) that prevent loading with Na^+, Ca^2+, or Cl^− and results in a high proportion of viable, contracting cells (Self, D. A., et al., J. Vasc. Res. 31:359-366 (1994); Rusch., N. J., et al., Physiology and Pathophysiology of the Heart, 999-1010 (1995)). The cells prepared for culture were seeded at low density in cardiovascular culture solution for mammals, fifth generation (CV5M) on glass coverslips to facilitate selection of individual cells. VMC were used for experiments 7-14 days after attaching to coverslips.
Freshly dispersed or primary cultured VMCs on glass coverslips were placed in a chamber of laminar flow design and observed with a Zeiss Plan Neofluar 25×/0.80 water immersion objective. Ionic solution for mammals version 2 (ISM2) was continuously pumped through the chamber (at 1 ml/minute) to provide continuous equilibration and washout of drugs. After a 15 minutes equilibration period, VMC were loaded for 15 minutes at room temperature with 3 μM fluo 3 (Molecular Probes, Inc.) for sensing Ca^2− and for 10 minutes with […] hypericin (LC Laboratories) for reporting PKC. Individual VMC were stimulated by adding 20 μl of 10 μM serotonin plus 100 nM U46619 over the individual cell. After 15 seconds under no-flow conditions, continuous flow of ISM2 was reinstated and a chamber volume of approximately 300 μl was maintained. Fluorescent images were taken at 1, 2, 5, 10, 15, 20 and 30 minutes after stimulation for Ca^2+ and at 3, 4, 9, 16, 21 and 31 minutes for PKC to evaluate subcellular distribution of these signals, and to determine VMC contraction.
ISM2 contains (in mM): 100 NaCl, 4 NaHCO3, 0.5 NaH2PO4, 4.7 KCl, 1.8 CaCl2, 0.41 […], 50 HEPES (pH 7.37), and 5.5 dextrose, KG solution consists of (in mM); 140 K-glutamate, 16 NaHCO3, 0.5 NaH2PO4, 30 HEPES, and 16.5 dextrose at pH 7.3. CVSM consists of. 4.0 mM L-glutamine, 10 μg/ml ciprofloxacin (Miles Pentex/Bayer Corporation), 50 mM HEPES (pH 7.3), and 16 mM NaHCO3 dissolved in 85% MEM-Earle's'salts and 15% horse serum. Phenol red, known to have estrogenic activity, was omitted from all solutions.
As discussed above, the monkeys were implanted with subdermal sylastic tubing containing estrogen (E) progesterone (P) or MPA. The first step in each of the three groups was to implant sylastic tubing containing E. Two weeks later, either P or MPA were additionally implanted and maintained for another 4 weeks (6 weeks total). In the withdrawal (W) group, the E tube was withdrawn, and no tubes were implanted for the last 4 weeks.

For CC(=O)[C@H]1CC[C@H]2[C@@H]3CCC4=CC(=O)CC[C@]4(C)[C@H]3CC[C@]12C [P, progesterone], the “local concentration of progesterone in the endometrial tissue” value [1] is listed as about 7 nanograms/ml, the “Progesterone Levels” value ([2]; Week 0, 1/2 H) is listed as 1.6 Nanograms/ml and the “Progesterone Levels” value ([2]; Week 0, 1 H) is listed as 3.1 Nanograms/ml. The “Progesterone Levels” value ([2]; Week 0, 2 H) was 2.8 Nanograms/ml, the “Progesterone Levels” value ([2]; Week 0, 3 H) was 3.5 Nanograms/ml and the “Progesterone Levels” value ([2]; Week 0, 4 H) was 3.3 Nanograms/ml. For the same compound, the “Progesterone Levels” value ([2]; Week 0, 6 H) was 4.6 Nanograms/ml, the “Progesterone Levels” value ([2]; Week 0, 12 H) was 2.4 Nanograms/ml and the “Progesterone Levels” value ([2]; Week 1, 0 H) was 0.43 Nanograms/ml (2×) and 0.4 Nanograms/ml and 1.5 Nanograms/ml and 1.6 Nanograms/ml and 1.9 Nanograms/ml. For the same compound, the “Progesterone Levels” value ([2]; Week 1, 1 H (first of two columns headed 1 H), listed as Progesterone) was 1.0 Nanograms/ml and 1.5 Nanograms/ml and 1.3 Nanograms/ml and 1.6 Nanograms/ml and 2.0 Nanograms/ml, the “Progesterone Levels” value ([2]; Week 1, 1 H (second of two columns headed 1 H), listed as Progesterone) was 0.84 Nanograms/ml and 1.0 Nanograms/ml and 1.4 Nanograms/ml and 1.1 Nanograms/ml and 1.3 Nanograms/ml and 2.7 Nanograms/ml and the “Progesterone Levels” value ([2]; Week 1, 2 H) was 0.49 Nanograms/ml and 0.82 Nanograms/ml and 0.57 Nanograms/ml and 1.0 Nanograms/ml and 1.2 Nanograms/ml and 1.4 Nanograms/ml. The “Progesterone Levels” value ([2]; Week 1, 3 H) was 0.91 Nanograms/ml and 0.94 Nanograms/ml and 1.2 Nanograms/ml and 1.7 Nanograms/ml and 1.6 Nanograms/ml, the “Progesterone Levels” value ([2]; Week 1, 4 H) was 0.96 Nanograms/ml and 1.0 Nanograms/ml and 1.1 Nanograms/ml (2×) and 1.3 Nanograms/ml and 2.3 Nanograms/ml and the “Progesterone Levels” value ([2]; Week 1, 6 H) was 0.98 Nanograms/ml and 1.3 Nanograms/ml (2×) and 2.0 Nanograms/ml and 1.6 Nanograms/ml (2×). The “Progesterone Levels” value ([2]; Week 1, 12 H) was 0.87 Nanograms/ml and 0.96 Nanograms/ml and 1.3 Nanograms/ml and 1.6 Nanograms/ml and 1.8 Nanograms/ml and 2.0 Nanograms/ml, the “Progesterone Levels” value ([2]; Week 2, 0 H) was 0.93 Nanograms/ml and 1.2 Nanograms/ml and 0.96 Nanograms/ml and 2 Nanograms/ml and 1.7 Nanograms/ml and 3.3 Nanograms/ml and the “Progesterone Levels” value ([2]; Week 2, 1 H, listed as Progesterone) was 0.82 Nanograms/ml and 0.94 Nanograms/ml and 1.2 Nanograms/ml and 1.3 Nanograms/ml and 14.1 Nanograms/ml and 2.4 Nanograms/ml. The “Progesterone Levels” value ([2]; Week 2, 1 H, listed as progesterone) was 14.1 Nanograms/ml, the “Progesterone Levels” value ([2]; Week 2, 2 H) was 1 Nanograms/ml and 0.81 Nanograms/ml and 1.2 Nanograms/ml and 1.7 Nanograms/ml and 3.3 Nanograms/ml and 2.9 Nanograms/ml and the “Progesterone Levels” value ([2]; Week 2, 4 H) was 1.1 Nanograms/ml and 1.5 Nanograms/ml and 1.2 Nanograms/ml and 2.4 Nanograms/ml and 5 Nanograms/ml and 1.8 Nanograms/ml. The “Progesterone Levels” value ([2]; Week 2, 6 H) was 1 Nanograms/ml and 1.3 Nanograms/ml and 1.2 Nanograms/ml and 1.5 Nanograms/ml and 3.2 Nanograms/ml and 2.9 Nanograms/ml, the “Progesterone Levels” value ([2]; Week 2, 8 H) was 0.94 Nanograms/ml and 0.83 Nanograms/ml and 1.2 Nanograms/ml and 1.1 Nanograms/ml and 3 Nanograms/ml and 2.2 Nanograms/ml and the “Progesterone Levels” value ([2]; Week 2, 12 H) was 0.84 Nanograms/ml and 0.94 Nanograms/ml and 1.2 Nanograms/ml and 2.8 Nanograms/ml and 3.1 Nanograms/ml. The “Progesterone Levels” value ([2]; Week 2, 24 H) was 0.81 Nanograms/ml and 2 Nanograms/ml and 1.1 Nanograms/ml and 0.98 Nanograms/ml and 2.1 Nanograms/ml, the concentration at 1 h ([2]; female, human, topical, Week 1, 1 H) was 1 ng/mL and the concentration ([2]; female, human, topical, Week 1, 3 H) was 1 ng/mL. The “whole cell Ca2+ (fluo 3) fluorescence after stimulation” value ([3]; FIG. 3) was “increased significantly over control only at 1 minute”, the “peripheral-to-central Ca2+ ratio after stimulation” value ([3]; FIG. 4) was “too small to be significant” and the “PKC signal after stimulation” value ([3]; FIG. 5) was “failed to change PKC loci or intensity significantly from control values”. The “peripheral-to-central PKC ratio after stimulation” value ([3]; FIG. 6) was “never significantly different from control” and the “VMC contractions (cell width) after stimulation” value ([3]; FIG. 7) was “significantly different from 0-min controls only at 3 and 4 minutes”.
